{
  "source": "patent US20040213751A1",
  "about": "“Augmentation of pyrithione activity or a polyvalent metal salt of pyrithione activity by zinc-containing layered material” (priority 2003, published 2004)",
  "system": "Malassezia furfur (ATCC 14521)",
  "assay": "Minimum inhibitory concentration (MIC) of ZPT in mDixon agar, with and without augmenting material",
  "assay_type": "cell-based",
  "source_text": "In some cases, materials can augment the activity of antifungal actives. As used herein, the term augmentation is intended to mean enhancement of the antifungal activity of a ZPT-containing composition by the augmenting material to an extent sufficient to permit the use of a lower amount of ZPT without reducing the antifungal inhibition provided by the composition, as compared to the antifungal inhibition that is provided by an otherwise-identical ZPT-containing composition that is free of the augmenting material. Augmenting agents are generally specific to the material being augmented, forming a unique combination and often because there is a specific chemical or biological mechanism required to achieve the augmentation effect. ^1 The Minimum Inhibitory Concentration is indicative of anti-fungal efficacy. Generally, the lower the value of the composition, the better its anti-fungal efficacy, due to increased inherent ability of the anti-dandruff agent to inhibit the growth of microorganisms.\nAn “augmentation factor” is defined, which is the ratio of the MIC with and without an augmenting agent (at a specified concentration): [formula]\nDilutions of solubilized anti-microbial active were then added to test tubes containing molten mDixon agar. M. furfur inoculum was added to each tube of molten agar, the tube vortexed, and the contents poured into separate sterile petri dishes. […] The lowest tested dilution of anti-microbial active that yields no growth is defined as the Minimal Inhibitory Concentration (MIC).\n1) Malassezia furfur was grown in a 250 ml Erlenmeyer flask containing 100 mil “mDIXON” medium at 320 rpm and 30° C. until turbid.\n2) Selected dilutions were prepared using an appropriate dilution series, of the anti-microbial active or combination in solvent, which allowed the sample active to be solubilized prior to addition to the final test agar. For each concentration of the ZPT samples, the solvent was “DMSO”; for other samples, the solvent was water or “DMSO” or other suitable solvent.\n3) 0.25 ml dilutions of anti-microbial active were added to test tubes containing 9.5 ml molten “mDIXON” agar (held at 45° C. in a water bath).\n4) 0.25 M. furfur inoculum (adjusted to 5×10^5 cfu/ml by direct count) was added to each test tube of molten agar.\n5) Each tube was vortexed, and the contents poured into separate petri dishes.\n6) After the agar solidified, the plates inverted and incubated at 30° for 5 days.\n7) The plates were then observed for visible M. furfur growth.",
  "data": [
    {"molecule": "[O-]n1ccccc1=S.[O-]n1ccccc1=S.[Zn+2]", "note": "[ZPT, zinc salt of 1-hydroxy-2-pyridinethione]", "values": [
      {"measurement": "MIC of ZPT alone", "setting": "Malassezia furfur, mDixon agar, 30° for 5 days, no augmenting material", "result": 8, "unit": "ppm"}
    ]},
    {"molecule": "Zinc Stearate", "values": [
      {"measurement": "Augmentation Benefit", "setting": "5 ppm augmenting material, effective agent has augmentation factor greater than 1", "result": "No"},
      {"measurement": "MIC of ZPT with 5 ppm augmenting material", "setting": "Malassezia furfur, mDixon agar, 30° for 5 days, 5 ppm of the named augmenting material", "result": 8, "unit": "ppm"},
      {"measurement": "Augmentation Factor", "setting": "ratio of the MIC of ZPT without and with 5 ppm augmenting material", "result": 1.0}
    ]}
  ]
}
